Where “and” joins values, the source holds several entries; their conditions need not be identical. Equal entries are not always repeated. Entries after “also recorded” stand apart in the source; their conditions may differ. Where two headings read alike, the source gives them in different places.

The source of these data is patent US20020082273A1, “Agents for use in the treatment of alzheimer's disease” (priority 1998, published 2002).

The conditions of series [1]: cited from earlier work; for LogK, Ca: Table 1, K=[ML]/[M][L].
The conditions of series [2]: cited from earlier work; for LogK, Cu: K=[ML]/[M][L].
The conditions of series [3]: cited from earlier work; for LogK, Mg: Table 1, K=[ML]/[M][L].
For series [4] the following is noted: cited from earlier work; for LogK, Fe: Table 1, K=[ML]/[M][L].
For series [5] the following is noted: cited from earlier work; for LogK, Zn: Table 1, K=[ML]/[M][L].
The conditions of series [6]: cited from earlier work; for LogK, Al: Table 1, K=[ML]/[M][L].
The conditions of series [7]: cited from earlier work; for LogK, Co: Table 1, K=[ML]/[M][L].
Series [8] relates to Aβ deposits of AD-affected brain. Briefly: Extraction (solubilization) of Aβ from post-mortem AD brain tissue homogenates, western blot densitometry. Type of series: biochemical, human. As to the method: Identical regions of frontal cortex (0.5 g) from post-mortem brains of individuals with AD, as well as non-AD conditions, were homogenized in TBS, […] ±metal chelators.
0.5 g of prefrontal cortex was dissected and homogenized in PBS ±chelator as indicated. The homogenate was then centrifuged (100,000 g) and the supernatant removed, and a sample taken for western blot assay using anti-Aβ specific antibodies after Tricine PAGE. Densitometry was performed against synthetic peptide standards.
Densitometry of Aβ western blots (FIGS. 19A-19C) was performed for a series of 6 AD brain samples homogenized in the presence of chelators as indicated.
Next the ability of clioquinol to extract Aβ deposits from human brain was examined. […] Fragments of prefrontal cortex from individual post-mortem samples with the histopathological diagnosis of AD were homogenized in PBS, pH 7.4, and then pelleted after centrifugation. The pellets were then washed with agitation twice for 30 minutes, 4° C., with PBS or PBS containing clioquinol (100% =0.8 μM clioquinol). The suspension was then pelleted (10,000 g for 30 minutes) and the supernatant removed (S1) for western blot analysis using Aβ-specific antibodies (illustrated). The pellet was treated a second time in this experiment with agitation and centrifugation, and the second supernatant (S2) analysed.
Soluble Aβ (ng/g tissue) was determined as described. Total Aβ was determined following formic acid extraction of otherwise untreated tissue.
Suitable quantities of gray matter from each subject were minced to serve as pools of homogenous tissue. […] To obtain the soluble fraction, the homogenates were centrifuged at 100,000× g for 30 min (Beckman J180, Beckman instruments, Fullerton, California) and the supernatant collected in 1 ml aliquots and stored on ice or immediately frozen at −70° C. In each experiment, all protein was precipitated from 1 ml of supernatant from each treatment group using 1:5 ice cold 10% trichloracetic acid and pelleted in a bench top microfuge (Heraeus, Osteroder, Germany) at 10,000× g. The remaining pellet was frozen at −70° C.
Precipitated protein was subjected to SDS polyacrylamide gel electrophoresis (SDS-PAGE) on Novex pre-cast 10-20% Tris-Tricine gels followed by Western transfer onto 0.2 μm nitrocellulose membrane (Biorad, Hercules, Calif.). […] Each gel included two or more lanes containing known quantities of synthetic Aβ which served as internal reference standards. Blot images were captured by a Relisys scanner with transparency adapter (Teco Information Systems, Taiwan, ROC) and densitometry conducted using the NIH Image 1.6 program (National Institutes for Health, USA. Modified for PC by Scion Corporation, Frederick, Md.), calibrated using a step diffusion chart. For quantitation of Aβ in brain extracts, the internal reference standards of synthetic Aβ were utilized to produce standard curves from which values were interpolated.

Series [9] can be described thus: Residual metals in post-centrifugation pellets of brain homogenates (ICP-AES). It is filed as biochemical, human. Conditions: Table 6.

Consider `c1ccc(-c2ccnc3c2ccc2c(-c4ccccc4)ccnc23)cc1` [Bathophenanthroline], for which the “LogK, Ca” value in [1] is listed as 0. Also, the “LogK, Cu” value in series [2] (Table 1) is listed as 8.8. In addition, the “LogK, Mg” value in [3] is given as 0. Moreover, the “LogK, Fe” value in series [4] was 5.6. For the same compound, in series [5], the “LogK, Zn” value is reported as 6.9. The “LogK, Al” value in [6] is on record as 0. Besides, the “LogK, Co” value in [7] was 0.

As for `O=C(O)CN(CCN(CC(=O)O)CC(=O)O)CCN(CC(=O)O)CC(=O)O` [DTPA, diethylenetriaminopenta acetic acid], the log stability constant in series [2] (FIG. 34C legend, metal not given, Cu^2+ implied) is on record as 21.1.

Take `O=C(O)CN(CCOCCOCCN(CC(=O)O)CC(=O)O)CC(=O)O` [EGTA]: the “Effect of Chelators upon extraction of Aβ (% change from control)” value in [8] (0.1 mM chelator, mean n = 6 AD brain samples, above PBS extraction alone) was 207%; in series [8] (2.0 mM chelator, mean n = 6 AD brain samples, above PBS extraction alone) it was 46%. Further, the “Aβ signal versus PBS control” value in [8] (EGTA 2 mM) was “virtually abolished the signal for Aβ; also recorded: diminution in Aβ signal”. The “efficiency in extracting Aβ” value in series [8] (neutral saline buffer, TPEN 5 μM) is “less efficient”. Also, the “Residual Al in extracted pellet” value came to 43 mg/kg in [9] (chelator 0.001 mM); 73 mg/kg in [9] (chelator 0.004 mM); 61 mg/kg in [9] (chelator 0.01 mM); 104 mg/kg in series [9] (chelator 0.04 mM); 62 mg/kg in series [9] (chelator 2.0 mM); 27 mg/kg in [9] (chelator 5.0 mM). Moreover, the “Residual Ca in extracted pellet” value amounted to 862 mg/kg in series [9] (chelator 0.001 mM); 795 mg/kg in series [9] (chelator 0.004 mM); 675 mg/kg in series [9] (chelator 0.01 mM); 1402 mg/kg in series [9] (chelator 0.04 mM); 519 mg/kg in series [9] (chelator 2.0 mM); 455 mg/kg in series [9] (chelator 5.0 mM). Further, the “Residual Cu in extracted pellet” value was determined as 12 mg/kg in [9] (chelator 0.001 mM); 11 mg/kg in series [9] (chelator 0.004 mM); 13 mg/kg in series [9] (chelator 0.01 mM); 13 mg/kg in series [9] (chelator 0.04 mM); 13 mg/kg in series [9] (chelator 2.0 mM); 12 mg/kg in [9] (chelator 5.0 mM). Further, the “Residual Fe in extracted pellet” value in series [9] (chelator 0.001 mM) worked out at 281 mg/kg; in [9] (chelator 0.004 mM) it was 247 mg/kg; in series [9] (chelator 0.01 mM), 272 mg/kg; in [9] (chelator 0.04 mM), 438 mg/kg; in series [9] (chelator 2.0 mM), 238 mg/kg; in series [9] (chelator 5.0 mM), 230 mg/kg. For the same compound, the “Residual Mg in extracted pellet” value is 237 mg/kg in series [9] (chelator 0.001 mM); 228 mg/kg in [9] (chelator 0.004 mM); 213 mg/kg in series [9] (chelator 0.01 mM); 247 mg/kg in [9] (chelator 0.04 mM); 191 mg/kg in series [9] (chelator 2.0 mM); 168 mg/kg in [9] (chelator 5.0 mM). Further, the “Residual Zn in extracted pellet” value in series [9] (chelator 0.001 mM) came to 49 mg/kg; in [9] (chelator 0.004 mM) it was 53 mg/kg; in series [9] (chelator 0.01 mM), 54 mg/kg; in [9] (chelator 0.04 mM), 71 mg/kg; in series [9] (chelator 2.0 mM) it was 27 mg/kg; in series [9] (chelator 5.0 mM) it was 18 mg/kg. In addition, the “LogK, Ca” value in series [1] is recorded as 10.9. The “Stability constant logK10, Ca” value in series [1] (Table 5, NIST database) was 10.86. Also, in series [2] (Table 1), the “LogK, Cu” value is given as 17.6. Also, the “Stability constant logK10, Cu” value in series [2] (Table 5, NIST database) is 17.57. For the same compound, the “LogK, Mg” value in [3] is 5.3. In addition, the “Stability constant logK10, Mg” value in series [3] (Table 5, NIST database) is on record as 5.28. For the same compound, the “LogK, Fe” value in series [4] is on record as 11.8. Also, in [4] (Table 5, NIST database), the “Stability constant logK10, Fe” value is reported as 11.8. For the same compound, in [5], the “LogK, Zn” value was 12.6. Also, the “Stability constant logK10, Zn” value in series [5] (Table 5, NIST database) was 12.6. The “LogK, Al” value in [6] is 13.9. Also, the “Stability constant logK10, Al” value in series [6] (Table 5, NIST database) is on record as 13.9. Also, the “LogK, Co” value in [7] was 12.4. Also, the “Stability constant logK10, Co” value in series [7] (Table 5, NIST database) is given as 12.35.

For `CC(C)(S)[C@@H](N)C(=O)O` [Penicillamine], in series [1], the “LogK, Ca” value was 0. Also, the “LogK, Cu” value in series [2] (Table 1) is given as 18.2. Besides, the “LogK, Mg” value in series [3] was 0. The “LogK, Fe” value in series [4] was 0. For the same compound, the “LogK, Zn” value in [5] is on record as 10.2. Also, in series [6], the “LogK, Al” value is reported as 0. Moreover, the “LogK, Co” value in [7] is given as 0.

For the compound bathocuproinedisulfonic acid [BC], in series [8], the “Effect of Chelators upon extraction of Aβ (% change from control)” value was 301% and 400%; the “efficiency in extracting Aβ” value is given as “highly efficient”. The “LogK, Ca” value in [1] is listed as 0. Also, the “LogK, Cu (Cu^+)” value in series [2] (Table 1, value for Cu^+) is recorded as 19.1. Besides, in [3], the “LogK, Mg” value is reported as 0. In addition, in series [4], the “LogK, Fe” value is 0. Further, the “LogK, Zn” value in [5] is recorded as 4.1. The “LogK, Al” value in series [6] is listed as 0. Also, the “LogK, Co” value in series [7] is given as 4.2.
